Values of other authors, collected in US20240238336A1, “COPPER NANOCLUSTERS, METHODS FOR OBTAINING SAME AND THE USE THEREOF IN THE TREATMENT OF MENKES DISEASE” (priority 2021, published 2024).

Tested on: Menkes syndrome
Conditions: child; daily subcutaneous injections for two and a half years

In the case of `N[C@@H](Cc1c[nH]cn1)C(=O)O.[Cu]` [copper histidine], the development is given as “continued to manifest severe developmental delays”, the epilepsy crises is given as “epilepsy crises were eliminated” and the “pigmentation of skin and hair” value is given as “improved pigmentation of the skin and hair”.
